Assay results as given in ChEMBL document CHEMBL4308866, “Rotenoisin A is a novel anti-adipogenic compound” (Bioorg Med Chem Lett, 2019).
The source made the active and inactive calls. The calls are words filed in the database; no cut-off is given here.

Columns and labels:
[1] = biological target: T1, 5'-AMP-activated protein kinase (Mus musculus) (UniProt Q5EG47+Q8BRK8+Q6PAM0+O54950+Q91WG5+Q9R078+Q8BGM7); assay: Activation of AMPK phosphorylation at […] residue in mouse 3T3L1 adipocytes in DMI differentiation media in presence of AMPK inhibitor compound C by Western blot analysis; type: cell-based; details: 3T3-L1
[2] = biological target: T1, 5'-AMP-activated protein kinase (Mus musculus); assay: Activation of AMPK in mouse 3T3L1 adipocytes in DMI differentiation media assessed as decrease in LPL expression after 4 to 8 days by Western blot analysis; type: cell-based; details: 3T3-L1
[3] = tested on: 3T3-L1; assay: Effect on total AMPK expression in mouse 3T3L1 adipocytes in DMI differentiation media at 0.4 to 1.5 ug/ml after 4 to 8 days by Western blot analysis; type: ADME, cell-based
[4] = tested on: 3T3-L1; assay: Anti-adipogenic activity in mouse 3T3L1 adipocytes assessed as inhibition of insulin/dexamethasone/isobutylmethylxanthine induced-triglyceride accumulation at 1.5 ug/ml treated every 2 days following compound washout for 8 days by ELISA relative to control; type: functional
[5] = biological target: T1, 5'-AMP-activated protein kinase (Mus musculus); assay: Activation of AMPK in mouse 3T3L1 adipocytes in DMI differentiation media at 0.4 to 1.5 ug/ml after 8 days by Western blot analysis; type: cell-based; details: 3T3-L1
[6] = tested on: 3T3-L1; assay: Anti-adipogenic activity in mouse 3T3L1 adipocytes assessed as inhibition of insulin/dexamethasone/isobutylmethylxanthine induced-triglyceride accumulation at 0.4 ug/ml treated every 2 days following compound washout for 8 days by ELISA relative to control; type: functional
[7] = biological target: T1, 5'-AMP-activated protein kinase (Mus musculus); assay: Activation of AMPK in mouse 3T3L1 adipocytes in DMI differentiation media at 1.5 ug/ml after 24 hrs in presence of AMPK inhibitor compound C by Western blot analysis; type: cell-based; details: 3T3-L1
[8] = biological target: AMP-activated protein kinase, AMPK (Homo sapiens) (UniProt P54646+O43741+P54619+Q9UGJ0+Q9Y478+Q13131+Q9UGI9); assay: Activation of AMPK (unknown origin) at 0.4 to 1.5 ug/ml; type: protein-complex assay
[9] = biological target: T1, 5'-AMP-activated protein kinase (Mus musculus); assay: Activation of AMPK in mouse 3T3L1 adipocytes in DMI differentiation media assessed as decrease in C/EBPbeta mRNA expression after 4 days by RP-PCR analysis; type: cell-based; details: 3T3-L1
[10] = biological target: T1, 5'-AMP-activated protein kinase (Mus musculus); assay: Activation of AMPK in mouse 3T3L1 adipocytes in DMI differentiation media assessed as decrease in C/EBPbeta expression after 4 to 8 days by Western blot analysis; type: cell-based; details: 3T3-L1
[11] = tested on: 3T3-L1; assay: Anti-adipogenic activity in mouse 3T3L1 preadipocytes assessed as inhibition of insulin/dexamethasone/isobutylmethylxanthine induced-cell differentiation treated every 2 days following compound washout for 8 days by Oil-red O staining based assay; type: functional
[12] = biological target: T1, 5'-AMP-activated protein kinase (Mus musculus); assay: Activation of AMPK in mouse 3T3L1 adipocytes in DMI differentiation media assessed as decrease in C/EBPalpha expression at 1.5 ug/ml after 6 days in presence of AMPK inhibitor compound C by Western blot analysis; type: cell-based; details: 3T3-L1
[13] = biological target: T1, 5'-AMP-activated protein kinase (Mus musculus); assay: Activation of AMPK in mouse 3T3L1 adipocytes in DMI differentiation media assessed as decrease in C/EBPalpha mRNA expression after 4 days by RP-PCR analysis; type: cell-based; details: 3T3-L1
[14] = tested on: 3T3-L1; assay: Induction of morphological changes in mouse 3T3L1 cells; type: cell-based
[15] = biological target: T1, 5'-AMP-activated protein kinase (Mus musculus); assay: Activation of AMPK in mouse 3T3L1 adipocytes in DMI differentiation media assessed as decrease in C/EBPbeta expression at 1.5 ug/ml after 24 hrs in presence of AMPK inhibitor compound C by Western blot analysis; type: cell-based; details: 3T3-L1
[16] = biological target: T1, 5'-AMP-activated protein kinase (Mus musculus); assay: Activation of AMPK in mouse 3T3L1 adipocytes in DMI differentiation media assessed as decrease in PPARgamma mRNA expression after 4 days by RP-PCR analysis; type: cell-based; details: 3T3-L1
[17] = tested on: 3T3-L1; assay: Anti-adipogenic activity in mouse 3T3L1 preadipocytes assessed as inhibition of insulin/dexamethasone/isobutylmethylxanthine induced-lipid accumulation treated every 2 days following compound washout for 8 days by Oil-red O staining based assay; type: functional, cell-based
[18] = biological target: T1, 5'-AMP-activated protein kinase (Mus musculus); assay: Activation of AMPK in mouse 3T3L1 adipocytes in DMI differentiation media assessed as decrease in PPARgamma expression after 4 to 8 days by Western blot analysis; type: cell-based; details: 3T3-L1
[19] = biological target: T1, 5'-AMP-activated protein kinase (Mus musculus); assay: Activation of AMPK in mouse 3T3L1 adipocytes in DMI differentiation media assessed as increase in ACC phosphorylation in presence of AMPK inhibitor compound C by Western blot analysis; type: cell-based; details: 3T3-L1
[20] = biological target: T1, 5'-AMP-activated protein kinase (Mus musculus); assay: Activation of AMPK in mouse 3T3L1 adipocytes in DMI differentiation media assessed as decrease in FAS expression after 4 to 8 days by Western blot analysis; type: cell-based; details: 3T3-L1
[21] = biological target: T1, 5'-AMP-activated protein kinase (Mus musculus); assay: Activation of AMPK phosphorylation at […] residue in mouse 3T3L1 adipocytes in DMI differentiation media after 4 to 8 days by Western blot analysis; type: cell-based; details: 3T3-L1
[22] = biological target: T1, 5'-AMP-activated protein kinase (Mus musculus); assay: Activation of AMPK in mouse 3T3L1 adipocytes in DMI differentiation media assessed as increase in ACC phosphorylation after 4 to 8 days by Western blot analysis; type: cell-based; details: 3T3-L1
[23] = biological target: T1, 5'-AMP-activated protein kinase (Mus musculus); assay: Activation of AMPK in mouse 3T3L1 adipocytes in DMI differentiation media assessed as decrease in aP2 expression after 4 to 8 days by Western blot analysis; type: cell-based; details: 3T3-L1
[24] = tested on: 3T3-L1; assay: Cytotoxicity against mouse 3T3L1 cells assessed as effect on cell viability up to 1.5 ug/ml after 4 to 8 days by MTT assay; type: cell-based
[25] = biological target: T1, 5'-AMP-activated protein kinase (Mus musculus); assay: Activation of AMPK in mouse 3T3L1 adipocytes in DMI differentiation media assessed as decrease in PPARgamma expression at 1.5 ug/ml after 6 days in presence of AMPK inhibitor compound C by Western blot analysis; type: cell-based; details: 3T3-L1
[26] = biological target: T1, 5'-AMP-activated protein kinase (Mus musculus); assay: Activation of AMPK in mouse 3T3L1 adipocytes in DMI differentiation media assessed as decrease in C/EBPalpha expression after 4 to 8 days by Western blot analysis; type: cell-based; details: 3T3-L1

For `C=C(C)[C@H]1Cc2c(ccc3c2O[C@@H]2COc4cc(OC)c(OC)cc4[C@@H]2[C@@]32CO2)O1` [ROTENOISIN A], the Activity [1] was “inactive”, the Activity [2] was “Dose-dependent effect” and the Activity [3] was “Non-Toxic”. The inhibition at 1.5 µg/mL [4] was 57%, the Activity [5] was “Active” and the inhibition at 0.4 µg/mL [6] was 23%. The Activity [7] was “inactive”, the Activity [8] was “inactive” and the Activity [9] was “Dose-dependent effect”. The Activity [10] was “Dose-dependent effect”, the inhibition [11] was “Dose-dependent effect” and the Activity [12] was “inactive”. For the same compound, the Activity [13] was “Dose-dependent effect”, the Activity [14] was “Non-Toxic” and the Activity [15] was “inactive”. The Activity [16] was “Dose-dependent effect”, the inhibition [17] was “Dose-dependent effect” and the Activity [18] was “Dose-dependent effect”. The Activity [19] was “inactive”, the Activity [20] was “Dose-dependent effect” and the Activity [21] was “Dose-dependent effect”. For the same compound, the Activity [22] was “Dose-dependent effect”, the Activity [23] was “Dose-dependent effect” and the Activity [24] was “Non-Toxic”. For the same compound, the Activity [25] was “inactive” and the Activity [26] was “Dose-dependent effect”.
